The text below walks through data of the supplement of paper PMC11208160.
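Also: IS621 recombinase and bridge RNA in Escherichia coli cells.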

The data set in a line: recombinant barcode read abundance after kanamycin selection (control-corrected) (log10(CPM+1)); higher = more efficient recombination; sequences stand for … in AGTGCAGAGAAAATCGGCCAGTTTTCTCTGCCTGCAGTCCGCATGCCGT…AGATTTATGCAGCGGACTGCCTTTCTCCCAAAGTGATAAACCGGACAGTATCATGGACCGGTTTTCCCGGTAATCCGTATTTGCAAGGTTGGTTTCACT; site = the 11-nt target. The essentials: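 A vector carrying a T7-inducible recombinase and the last 73 bp of the bridge RNA received, by Gibson cloning, oligos encoding a promoter, target, barcode and the first 104 bridge RNA bases under J23119. The pooled constructs entered E. coli together with a donor plasmid by electroporation. Selection used chloramphenicol/ampicillin/kanamycin with 0.1 mM IPTG, with chloramphenicol/ampicillin LB agar as the control, each in two replicates. Recombination efficiency is the averaged, control-corrected counts-per-million of barcodes at recombinant junctions, reported as log10(CPM+1).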
Take “TAGTACTCTTGGGTTCTAACCTGTTGCTT (site TAGTACTCTTA)”: the “recombinant barcode read abundance (log10)” value is 0.0259.
In the case of “TAGTATCCTTGGGTTCTAACCTGTTGCGT (site TAGTATCCTAC)” it was 1.87.
With “TAGTATCCTTGGGTTCTAACCTGTTGCGT (site TAGTCTCCTAC)”, the “recombinant barcode read abundance (log10)” value is 0.0759.
In the case of “TAGTATCCTTGGGTTCTAACCTGTTGCGT (site TAGTGTCCTAC)” it was 0.0306.
For “TAGTATCCTTGGGTTCTAACCTGTTGCGT (site TAGTTTCCTAC)”, the “recombinant barcode read abundance (log10)” value came to 0.21.
On to “TAGTCCACTTGGGTTCTAACCTGTTGCTA (site AAGTCCACTAA)”, for which the “recombinant barcode read abundance (log10)” value was 0.239.
To “TAGTCCACTTGGGTTCTAACCTGTTGCTA (site TAGTCCACTTA)” belongs 1.15; to “TAGTCCGCTTGGGTTCTAACCTGTTGCCG (site TAGCCCTCTCG)”, 0.214.
As for “TAGTCCGCTTGGGTTCTAACCTGTTGCCG (site TAGTCCGCTCG)”, the “recombinant barcode read abundance (log10)” value was determined as 0.446.
In the case of “TAGTCCTCTTGGGTTCTAACCTGTTGCTG (site TAGTCCTCTAA)” it was 0.048; in that of “TAGTCCTCTTGGGTTCTAACCTGTTGCTG (site TAGTCCTCTCA)”, 1.02.
As for “TAGTCCTCTTGGGTTCTAACCTGTTGCTG (site TAGTCCTCTGA)”, the “recombinant barcode read abundance (log10)” value amounted to 0.14.
In the case of “TAGTCCTCTTGGGTTCTAACCTGTTGCTG (site TAGTCCTCTTA)” it was 0.185; in that of “TAGTCTTCTTGGGTTCTAACCTGTTGCGT (site AAGTATTCTAC)”, 0.066; in that of “TAGTCTTCTTGGGTTCTAACCTGTTGCGT (site TAGTCTTCTAC)”, 0.681.
For “TAGTGGTCTTGGGTTCTAACCTGTTGCAT (site TAGTGGTCTAT)”, the “recombinant barcode read abundance (log10)” value was found to be 2.04.
With “TAGTGGTCTTGGGTTCTAACCTGTTGCAT (site TAGTGGTCTTA)”, the “recombinant barcode read abundance (log10)” value is 0.215.
To “TAGTGTCCTTGGGTTCTAACCTGTTGCCA (site TAGTGTCCTTG)” belongs 0.357.
To “TAGTGTCCTTGGGTTCTAACCTGTTGCCA (site TGGTGTGCTTG)” belongs 0.142; to “TAGTGTGCTTGGGTTCTAACCTGTTGCGT (site TAGTGTGCTAA)”, 0.0341; to “TAGTGTGCTTGGGTTCTAACCTGTTGCGT (site TAGTGTGCTAC)”, 1.66.
To “TAGTGTTCTTGGGTTCTAACCTGTTGCAT (site TAGTGTCCTAT)” belongs 0.109; to “TAGTGTTCTTGGGTTCTAACCTGTTGCAT (site TAGTGTTCTAT)”, 0.918; to “TAGTTAGCTTGGGTTCTAACCTGTTGCCA (site TAGTTAGCTAG)”, 0.0117.
For the sequence “TAGTTAGCTTGGGTTCTAACCTGTTGCCA (site TAGTTAGCTCG)”, the “recombinant barcode read abundance (log10)” value came out at 0.17.
To “TAGTTAGCTTGGGTTCTAACCTGTTGCCA (site TAGTTAGCTGG)” belongs 0.0516.
Take “TAGTTAGCTTGGGTTCTAACCTGTTGCCA (site TAGTTAGCTTG)”: the “recombinant barcode read abundance (log10)” value is 0.418.
In the case of “TAGTTCACTTGGGTTCTAACCTGTTGCAT (site TAGATCACTAT)” it was 0.0793.
Turning to “TAGTTCACTTGGGTTCTAACCTGTTGCAT (site TAGCTCACTAT)”, the “recombinant barcode read abundance (log10)” value came to 0.0603.
On to “TAGTTCACTTGGGTTCTAACCTGTTGCAT (site TAGGTCACTAT)”, for which the “recombinant barcode read abundance (log10)” value stood at 0.159.
To “TAGTTCACTTGGGTTCTAACCTGTTGCAT (site TAGTTCACTAT)” belongs 0.382; to “TAGTTTACTTGGGTTCTAACCTGTTGCAG (site ACTCCAGCTAG)”, 0.294.
With “TAGTTTACTTGGGTTCTAACCTGTTGCAG (site TAGTTTACTCT)”, the “recombinant barcode read abundance (log10)” value is 0.272.
Take “TAGTTTACTTGGGTTCTAACCTGTTGCCA (site TAGTTAACTTG)”: the “recombinant barcode read abundance (log10)” value was determined as 0.0268.
To “TAGTTTACTTGGGTTCTAACCTGTTGCCA (site TAGTTCACTTG)” belongs 0.109.
On to “TAGTTTACTTGGGTTCTAACCTGTTGCCA (site TAGTTGACTTG)”, for which the “recombinant barcode read abundance (log10)” value was determined as 0.0764.
For the sequence “TAGTTTACTTGGGTTCTAACCTGTTGCCA (site TAGTTTACTTG)”, the “recombinant barcode read abundance (log10)” value amounted to 0.334.
In the case of “TATAAAACTTGGGTTCTAACCTGTTGCCT (site TATAAAACTAG)” it was 0.0338; in that of “TATAAAACTTGGGTTCTAACCTGTTGCCT (site TATACAACTAG)”, 0.0401.
As for “TATAAAACTTGGGTTCTAACCTGTTGCCT (site TATAGAACTAG)”, the “recombinant barcode read abundance (log10)” value worked out at 0.0357.
As for “TATAAAACTTGGGTTCTAACCTGTTGCCT (site TATATAACTAG)”, the “recombinant barcode read abundance (log10)” value turned out to be 0.697.
In the case of “TATAACACTTGGGTTCTAACCTGTTGCCG (site CTACTATCTGC)” it was 0.0288.
In the case of “TATAACACTTGGGTTCTAACCTGTTGCCG (site TATAACACTCG)” it was 0.246; in that of “TATAACTCTTGGGTTCTAACCTGTTGCCT (site AATAACTCTAG)”, 0.0281.
“TATAACTCTTGGGTTCTAACCTGTTGCCT (site CATAACTCTAG)”: the “recombinant barcode read abundance (log10)” value came out at 0.198.
As for “TATAACTCTTGGGTTCTAACCTGTTGCCT (site GATAACTCTAG)”, the “recombinant barcode read abundance (log10)” value was 0.0978.
In the case of “TATAACTCTTGGGTTCTAACCTGTTGCCT (site TATAACTCTAG)” it was 0.549; in that of “TATACTGCTTGGGTTCTAACCTGTTGCCT (site TATACTACTAG)”, 0.0148; in that of “TATACTGCTTGGGTTCTAACCTGTTGCCT (site TATACTGCTAG)”, 0.0304.
In the case of “TATAGAACTTGGGTTCTAACCTGTTGCCT (site TATAAAACTAG)” it was 0.119.
To “TATAGAACTTGGGTTCTAACCTGTTGCCT (site TATACAACTAG)” belongs 0.0987; to “TATAGAACTTGGGTTCTAACCTGTTGCCT (site TATAGAACTAG)”, 0.192.
Regarding “TATAGAACTTGGGTTCTAACCTGTTGCCT (site TATATAACTAG)”, the “recombinant barcode read abundance (log10)” value turned out to be 0.015.
In the case of “TATCCGACTTGGGTTCTAACCTGTTGCCC (site TATCCGACTAG)” it was 0.238; in that of “TATCCGACTTGGGTTCTAACCTGTTGCCC (site TATCCGACTCG)”, 0.146; in that of “TATCCGACTTGGGTTCTAACCTGTTGCCC (site TATCCGACTGG)”, 0.688.
In the case of “TATCCGACTTGGGTTCTAACCTGTTGCCC (site TATCCGACTTG)” it was 0.125; in that of “TATCGCACTTGGGTTCTAACCTGTTGCCT (site TATCGCACTAG)”, 0.0277; in that of “TATCGCACTTGGGTTCTAACCTGTTGCCT (site TATGGGACTAG)”, 0.0986.
With “TATCGGGCTTGGGTTCTAACCTGTTGCAG (site ATGGACCCTGA)”, the “recombinant barcode read abundance (log10)” value was 0.0316.
In the case of “TATCGGGCTTGGGTTCTAACCTGTTGCAG (site TATCGGGCTCT)”, the “recombinant barcode read abundance (log10)” value came to 1.57.
Turning to “TATCGTCCTTGGGTTCTAACCTGTTGCAT (site TACCGTCCTAT)”, the “recombinant barcode read abundance (log10)” value amounted to 0.0483.
As to “TATCGTCCTTGGGTTCTAACCTGTTGCAT (site TATCGTCCTAT)”, the “recombinant barcode read abundance (log10)” value was determined as 0.803.
To “TATCTGACTTGGGTTCTAACCTGTTGCCT (site TATCAGACTTG)” belongs 0.0204; to “TATCTGACTTGGGTTCTAACCTGTTGCCT (site TATCTGACTAG)”, 0.202; to “TATGCTACTTGGGTTCTAACCTGTTGCAT (site AATGCTACTAT)”, 1.03.
On to “TATGCTACTTGGGTTCTAACCTGTTGCAT (site TATGCTACTAT)”, for which the “recombinant barcode read abundance (log10)” value was found to be 0.371.
To “TATGCTTCTTGGGTTCTAACCTGTTGCTT (site TATGCTTCTAA)” belongs 0.0973; to “TATGCTTCTTGGGTTCTAACCTGTTGCTT (site TATGGTTCTAG)”, 0.0104.
In the case of “TATGGGTCTTGGGTTCTAACCTGTTGCCT (site TATGGGTCTAG)” it was 1.04; in that of “TATGGGTCTTGGGTTCTAACCTGTTGCCT (site TGTGGGTCTAG)”, 0.209.
For the sequence “TATGTAGCTTGGGTTCTAACCTGTTGCCG (site TATGTAGCTAG)”, the “recombinant barcode read abundance (log10)” value was 0.486.
In the case of “TATGTAGCTTGGGTTCTAACCTGTTGCCG (site TATGTAGCTCG)”, the “recombinant barcode read abundance (log10)” value came to 1.04.
Regarding “TATGTAGCTTGGGTTCTAACCTGTTGCCG (site TATGTAGCTGG)”, the “recombinant barcode read abundance (log10)” value amounted to 0.107.
For “TATGTAGCTTGGGTTCTAACCTGTTGCCG (site TATGTAGCTTG)”, the “recombinant barcode read abundance (log10)” value was found to be 0.0858.
To “TATGTAGCTTGGGTTCTAACCTGTTGCCT (site TATGTAGCTAG)” belongs 0.677; to “TATGTAGCTTGGGTTCTAACCTGTTGCCT (site TATGTAGCTCG)”, 0.353.
